Measured values taken from patent US5587389A, “Substituted heteroarylaklylthiopyridines for controlling helicobacter bacteria” (BYK Gulden Lomberg Chemische Fabrik GmbH, priority 1993, dated 1996).

tested on: Helicobacter pylori; test: activity against Helicobacter pylori (MIC), modified method of Iwahi et al., Columbia agar, growth period of 4 days; type: cell-based; details: Columbia agar (Oxoid)
Protocol: The compounds of the formula I were tested for their activity against Helicobacter pylori following a modification of the method described by Tomoyuki Iwahi et al. (Antimicrobial Agents and Chemotherapy, 1991, 490-496) using Columbia agar (Oxoid) over a growth period of 4 days. The MIC values listed in Table 2 below were found here for the tested compounds (the compound numbers shown agree with the compound numbers in the description).

Structure (SMILES)	MIC Value [µg/mL]
Cc1c(SCCc2ccccn2)ccnc1CSc1nc2ccccc2[nH]1 [Compound 17]	≤ 1.0

same assay, conditions: Helicobacter pylori, 96 h, Columbia agar (Oxoid)

MIC [µg/mL]	Structure (SMILES)
≤ 1	Cc1c(SCc2ccco2)ccnc1CSc1nc2ccccc2[nH]1 [Compound 1, 2-{[[4-(2-Furylmethylthio)-3-methyl,2-pyridinyl]methyl]thio}-1H-benzimidazole]
≤ 1	Cc1c(SCc2ccco2)ccnc1CSc1nc2ccccc2[nH]1.Cl.Cl [Compound 12, 2-{[[4-(2-Furylmethylthio)-3-methyl-2-pyridinyl]methyl]thio}-1H-benzimidazole dihydrochloride]
≤ 1	COc1ccnc(CSc2ccnc(CSc3nc4ccccc4[nH]3)c2C)c1OC [Compound 16, 2-{[[4-3,4-Dimethoxy-2-pyridinylmethylthiol-3-methyl-2-pyridinyl]methyl]thio}-1H-benzimidazole]
≤ 1	Cc1c(SCCCn2ccnc2C)ccnc1CSc1nc2ccccc2[nH]1 [Compound 19, 2-{[[4-[3-(2-Methylimidazol-1-yl)propylthio]-3-methyl-2-pyridinyl]methyl]thio}-1H-benzimidazole]

More lines, now with the values behind:

Structure (SMILES)	MIC [µg/mL]
COc1c(SCc2ccco2)ccnc1CSc1nc2ccccc2[nH]1 [Compound 2, 2-{[[4-(2-Furylmethylthio)-3-methoxy-2-pyridinyl]methyl]thio}-1H-benzimidazole]	≤ 1
Cc1c(SCc2cccs2)ccnc1CSc1nc2ccccc2[nH]1 [Compound 5, 2-{[[3-Methyl-4-(2-thienylmethylthio)-2-pyridinyl]methyl]thio}-1H-benzimidazole]	≤ 1
Cc1c(SCc2ccsc2)ccnc1CSc1nc2ccccc2[nH]1 [Compound 6, 2-{[[3-Methyl-4-(3-thienylmethylthio)-2-pyridinyl]methyl]thio}-1H-benzimidazole]	≤ 1
c1csc(CSc2ccnc(CSc3nc4ccccc4[nH]3)c2)c1 [Compound 8, 2-{[[4-(2-Thienylmethylthio)-2,pyridinyl]methyl]thio}-1H-benzimidazole]	≤ 1
Cc1c(SCCCn2ccnc2)ccnc1CSc1nc2ccccc2[nH]1 [Compound 18, 2-{[[-4-[3-(Imidazol-1-yl)propylthio]-3-methyl-2-pyridinyl]methyl]thio}-1H-benzimidazole]	≤ 1
Cc1c(SCc2ccco2)ccnc1C[S+]([O-])c1nc2ccccc2[nH]1 (centres unmarked) [Compound 20, 2-{[[4-(2-Furylmethylthio)-3-methyl-2-pyridinyl]methyl]sulfinyl}-1H-benzimidazole]	≤ 1
